The values below come from patent US9572788B2, “Cell permeable inhibitors of anaphase promoting complex” (President and Fellows of Harvard College, priority 2014, dated 2017).

For data set [1], the target named is APC (Xenopus laevis, UniProt A0A1L8ESF3). Briefly: Cyclin B1-luciferase reporter degradation (luciferase assay) in mitotic Xenopus egg extract. Type of data set: biochemical. Particulars: mitotic Xenopus extract.
Method: The extract was incubated at room temperature and 3 μL samples were taken at 0, 20, 40 and 60 min.
In data set [2] the test system is HeLa H2B-GFP cells. Briefly: Mitotic entry monitored by time-lapse imaging. It counts as cell-based, human. The settings on record: for Average time of mitotic entry / Median time of mitotic entry: Fig 4E.
The subject of data set [3] is RPE1-H2B-GFP cells. Briefly: Fluorescence live cell imaging with survival (Cox) analysis, RPE1. Type of data set: cell-based, human. The settings on record: proTAME 6 μM; for % rate of mitotic exit: relative to DMSO control, Cox model, apcin/apcin-M 25 μM; for Median mitotic duration: apcin or apcin-M 25 μM. How it is done: RPE1-H2B-GFP or U2OS-H2B-GFP cells were plated in 24-well glass-bottom plates 18-24 hours prior to siRNA transfection using RNAiMax (Invitrogen). After treatment with compound(s), DIC and GFP images were captured at 6-minute intervals for 45 hours. Movies were manually analyzed using Nikon Elements software or Image J.
RPE1-H2B-GFP or U2OS-H2B-GFP cells were plated in 24-well glass-bottom plates (Greiner BioOne, 662892) 18-24 hours prior to siRNA transfection using RNAiMax (Invitrogen). Plates were inserted into a covered chamber supplied with humidified 5% CO2 and mounted onto a motorized microscope stage (Prior Scientific). DIC and FITC images were captured at 6 minute intervals for 45 hours using a Nikon Ti inverted fluorescence microscope fitted with a 37° C. enclosed incubation chamber and using a 20× Plan Apo 0.75 NA objective lens. A Hamamatsu ORCA cooled CCD camera collected the images with 2×2 binning using Nikon Elements software (version 3.0). Movies were manually analyzed using Nikon Elements software or ImageJ. Mitotic duration was defined as the time from nuclear envelope breakdown until anaphase, in the case of normal mitosis, or until exit from prolonged mitosis as indicated by cytoplasmic blebbing accompanied by changes in chromatin as detected by H2B-GFP.
In order to detect differences in mitotic duration among cells in the live-cell imaging screen, a stratified Cox proportional hazards model (Cox, D. R. Regression models and life tables. J Royal Statistics Soc B34, 187-220, (1972)) was fit to censored mitotic duration times (where cells that are not observed exiting mitosis or dying in mitosis are censored at the last known time in mitosis). The Cox proportional hazards model is a semiparameteric approach to modeling time-to-event data, in which covariates are assumed to have constant proportional effects over time relative to a baseline hazard function that can take any form. In this case, stratification on “person” (the individual who analyzed the movie) and “date” (the date the assay was run) allow the baseline hazard function to differ across experimental blocks, but assume a fixed effect of treatment across experimental blocks. The model is thus: hi(t|Z=j)=hj(t)exp(β1×apcini+β2×apcinMi+β3×proTAMEi+β4×proTAMEi:apcinMi+β5×proTAMEi:apcini), j=1 . . . 4 where hi(t) is the hazard function of cell i at time t, hj(t) is the baseline hazard for strata j (with 4 levels, one for each person and date combination), apcini, proTAMEi, and apcinMi are indicator variables for presence or absence of the compounds apcin, proTAME, and apcin-M, respectively in cell i, proTAMEi:apcini is an indicator variable that is 1 if both proTAME and apcin are present in cell i, and 0 otherwise, and proTAMEi:apcinMi is a similar indicator variable for proTAME+apcin-M. In this model, […] represent the effects of apcin, apcin-M, and proTAME alone, while β4 and β5 represent the additional non-additive effect of the compounds beyond what is predicted from the combination of effects of the two compounds alone. This model was fit separately to cells treated with control siRNA or Mad2 siRNA. All statistical analysis was carried out in R 3.0.0 using the functions available as part of the survival package.
In this model, the β coefficients represent the log hazard ratios for exiting mitosis between treated and untreated cells. However, for ease of interpretation the β coefficients are exponentiated to convert them to normal hazard ratios, and then multiplied by 100 to convert to percentages relative to DMSO. These hazard ratios, which are referred to as mitotic exit rate, represent the relative probability that a treated cell in mitosis at time t will exit mitosis in the next time interval compared to an untreated cell.
For ease of interpretation, the treatment effects are presented relative to DMSO for all individual compounds and compound combinations. […]

Data set [4] deals with HeLa cells. Put plainly: ProTAME activation analysis (LC/MS) in HeLa cells. Type of data set: in vitro ADME, human. Particulars: 20 μM. How it is done:
ProTAME was added to interphase Xenopus extract at 50 μM or cell growth media at 20 μM. For interphase extract, 800 μl of sample was collected at 0 min, 10 min, 20 min and 30 min after addition of proTAME and diluted to 8 ml with XB. For cell culture, approximately 800,000 cells were collected at 1 h, 2 h and 3 h after addition of proTAME and lysed in 400 μl lysis buffer as described above and subsequently diluted to 4 ml with lysis buffer. The diluted extract or cell lysate was extracted with 1.5 volume of ethyl acetate. The extracts were dried in vacuo and the dry extracts were resuspended in 200 μl of methanol for LC/MS analysis. LC/MS data were obtained using an Agilent series 1200 LC/6130 MS system with a reversed-phase C18 column (Phenomenex Luna C18(2), 4.6 mm×100 mm, 5 μm) and a CH3CN/H2O gradient solvent system beginning with 10% aqueous CH3CN and ending at 100% CH3CN at 20 min. 10 μl of each sample was injected for each analysis.

[5] abbreviates: 12 μM proTAME added at 0 hr after release from thymidine block.
Where [6] appears, read: 12 μM proTAME added at 2 hrs after release.
The mark [7] stands for this setting: 12 μM proTAME added at 4 hrs after release.
Setting [8] is: 12 μM proTAME added at 6 hrs after release.
The mark [9] stands for this setting: 12 μM proTAME added at 8 hrs after release.

APC, sequence (A0A1L8ESF3 entry or part of it): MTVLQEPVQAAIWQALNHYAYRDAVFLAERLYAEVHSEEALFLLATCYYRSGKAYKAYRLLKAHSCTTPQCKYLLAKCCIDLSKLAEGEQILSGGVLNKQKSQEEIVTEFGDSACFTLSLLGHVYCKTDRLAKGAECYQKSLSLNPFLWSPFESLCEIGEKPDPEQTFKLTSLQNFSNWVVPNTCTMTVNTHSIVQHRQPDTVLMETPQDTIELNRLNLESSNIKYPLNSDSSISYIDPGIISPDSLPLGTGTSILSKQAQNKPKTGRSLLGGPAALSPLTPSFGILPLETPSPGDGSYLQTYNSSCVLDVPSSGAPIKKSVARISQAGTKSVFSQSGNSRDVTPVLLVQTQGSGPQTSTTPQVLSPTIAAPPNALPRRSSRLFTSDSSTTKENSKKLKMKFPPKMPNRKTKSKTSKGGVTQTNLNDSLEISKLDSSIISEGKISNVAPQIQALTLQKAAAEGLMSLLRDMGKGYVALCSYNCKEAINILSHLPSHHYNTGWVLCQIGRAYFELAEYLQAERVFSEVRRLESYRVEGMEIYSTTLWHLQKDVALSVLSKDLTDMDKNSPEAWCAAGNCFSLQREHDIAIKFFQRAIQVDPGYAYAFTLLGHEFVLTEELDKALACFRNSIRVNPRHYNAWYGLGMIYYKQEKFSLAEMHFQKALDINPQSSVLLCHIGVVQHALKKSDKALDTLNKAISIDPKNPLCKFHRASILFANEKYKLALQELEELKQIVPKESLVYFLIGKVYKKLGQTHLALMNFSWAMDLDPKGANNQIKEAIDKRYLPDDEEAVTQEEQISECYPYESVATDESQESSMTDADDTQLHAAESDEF
APC, sequence (Q6DFD4 entry or part of it, further chain): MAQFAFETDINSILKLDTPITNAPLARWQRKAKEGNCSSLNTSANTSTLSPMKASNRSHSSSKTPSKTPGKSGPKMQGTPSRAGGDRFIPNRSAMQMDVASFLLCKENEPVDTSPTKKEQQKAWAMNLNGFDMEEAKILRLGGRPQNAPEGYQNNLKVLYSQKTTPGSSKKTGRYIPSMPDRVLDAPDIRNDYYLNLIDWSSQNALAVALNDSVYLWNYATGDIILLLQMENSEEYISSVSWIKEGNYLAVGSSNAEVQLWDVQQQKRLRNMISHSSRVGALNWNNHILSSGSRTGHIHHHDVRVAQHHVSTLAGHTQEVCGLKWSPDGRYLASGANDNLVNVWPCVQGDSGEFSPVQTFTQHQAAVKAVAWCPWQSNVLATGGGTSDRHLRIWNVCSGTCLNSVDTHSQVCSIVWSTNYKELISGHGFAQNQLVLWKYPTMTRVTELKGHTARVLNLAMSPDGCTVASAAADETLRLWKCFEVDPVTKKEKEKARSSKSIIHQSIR

Regarding `COC(=O)[C@H](CCCN/C(=N\C(=O)OCOC(=O)Cc1ccccc1)NC(=O)OCOC(=O)Cc1ccccc1)NS(=O)(=O)c1ccc(C)cc1` [proTAME], the “Inhibition of cyclin B-luciferase proteolysis” value in data set [1] is on record as “efficiently inhibits cyclin B-luciferase proteolysis”. The “Average time of mitotic entry” value in data set [2] (setting [5]) came to 712.8 min; in data set [2] (setting [6]), 669.0 min; in data set [2] (setting [7]), 636.6 min; in data set [2] (setting [8]), 619.4 min; in data set [2] (setting [9]), 622.6 min. The “Median time of mitotic entry” value is given as 696 min in data set [2] (setting [5]); 660 min in data set [2] (setting [6]); 624 min in data set [2] (setting [7]); 612 min in data set [2] (setting [8]); 612 min in data set [2] (setting [9]). Moreover, the “Delay in mitotic entry” value is “did not delay mitotic entry” in data set [2] (added 6 hour or later after release) and 2 h in data set [2] (added during release from a double thymidine block). Also, the “% rate of mitotic exit” value is 0.22% in data set [3] (Mad2 siRNA) and 2.32% in data set [3] (control siRNA). Besides, the “Median mitotic duration” value in data set [3] (Table 3, control siRNA) turned out to be 120; in data set [3] (Table 3, mad2 siRNA) it was 114. For the same compound, the Activation of prodrug entry in data set [4] is reported as “activated efficiently in HeLa cells”.
